In patent US20240156965A1, “DICHALCOGENIDE PRODRUGS” (Ludwig-Maximilians-Universitat Munchen, priority 2021, published 2024):
Changes are numbered by the printed parent chain. “Also recorded” adds a separate entry of the source. Read-outs that look alike come from different tables or passages of the source.

Assays:
[1] = low concentration of GSH, within 20 minutes; cited from earlier work
[2] = molecular target: T1, thioredoxin reductase Sec498Cys mutant (TrxR1 U498C) (Homo sapiens, UniProt Q16881); assay: Enzymatic activation assay with TrxR1 Sec498Cys mutant, cell-free; format: biochemical; details: 10 μM probe, 20 nM mutant, 100 μM NADPH
T1 sequence (Q16881 with tags, fused parts or gaps isoform Q16881-5): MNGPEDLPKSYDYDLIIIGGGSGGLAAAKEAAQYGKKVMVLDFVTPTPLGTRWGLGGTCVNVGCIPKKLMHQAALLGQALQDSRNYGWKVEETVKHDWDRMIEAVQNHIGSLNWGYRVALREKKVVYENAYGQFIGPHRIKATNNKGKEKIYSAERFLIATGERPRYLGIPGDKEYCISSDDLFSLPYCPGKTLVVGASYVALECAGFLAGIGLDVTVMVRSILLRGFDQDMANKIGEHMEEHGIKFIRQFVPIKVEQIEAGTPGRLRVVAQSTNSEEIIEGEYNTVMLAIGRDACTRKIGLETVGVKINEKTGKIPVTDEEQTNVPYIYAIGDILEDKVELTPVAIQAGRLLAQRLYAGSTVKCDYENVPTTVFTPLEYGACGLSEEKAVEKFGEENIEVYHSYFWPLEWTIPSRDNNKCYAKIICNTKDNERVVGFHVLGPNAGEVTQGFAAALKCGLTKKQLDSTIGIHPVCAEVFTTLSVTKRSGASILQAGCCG
Description: (§1) This cell-free assay (see FIG. 2) examined the processing of dichalcogenide-based fluorophore-releasing reduction-triggered probes that are compounds of the invention, by components of the cellular thioredoxin system.
(§2) Assay conditions and data representation: A black 96-well plate with black bottom was charged with solutions of probes (P1, P2, P3, P6, P7) to reach final reaction conditions: 100 μL of aq. TE buffer (pH 7.4), 10 μM probe concentration, 1 vol % DMSO, and 20 nM of human recombinant thioredoxin reductase 1 (TrxR1; in FIG. 1a), or 20 nM of either TrxR1 or thioredoxin reductase Sec498Cys mutant (TrxR1 U498C or “mut”; in FIG. 1b), or the indicated probe-to-reductant concentration ratios of TrxR1 (in FIG. 1c) or human recombinant thioredoxin 1 (Trx1; in FIG. 1d); with the final step being the addition of NADPH (100 μM final). The reaction mixtures were incubated at 37° C. for 3 to 6 h as shown with timecourse measurements of fluorescence as for FIG. 1. Data representation as for FIG. 1.

[3] = test system: glutaredoxins (Grx1 and Grx2) with GR and GSH; assay: Challenge with GR/GSH/Grx system reductants, cell-free; format: biochemical; details: 10 μM probe, GR 20 nM, GSH 100 μM, Grx1 or Grx2 up to physiological concentrations
Description: (§3) This cell-free assay examined the stability of dichalcogenide-based reduction-triggered compounds of the invention when exposed to cellular monothiol reductant GSH, and its cellular partner reductants glutathione reductase (GR) and glutaredoxins (Grx1 and Grx2).
(§4) Assay Conditions: A black 96-well plate with black bottom was charged with solutions of fluorophore-releasing reduction-triggered probes that are compounds of the invention (P1, P2, P3, P6 and P7) or that are not compounds of the invention and reveal the performance of prior art systems (disulfide X26), reaching 100 μL final volume, 1% final DMSO, 10 μM probe, aq. TE buffer (pH 7.4), with the indicated concentrations of reductant (in FIG. 1a) or concentration ratios of reductant to probe (in FIG. 1b-d). TCEP (100 μM) was used as a quantitative reference reductant; and in the GR/GSH/Grx assays (FIG. 1c-d), GR was used at 20 nM, GSH at 100 μM, to maintain Grx in a reduced state suitable for challenging the probes without supplying a high concentration of either GSH or GR. Reaction mixtures were incubated at 37° C. for up to 6 h while measuring fluorescence intensity F over time, using a BMG Labtech FLUOstar Omega platereader (λexc=355 nm, λem=530 nm).
(§5) Data Representation: F^TCEP is the maximum possible fluorescence increase, corresponding to complete reduction-triggered cargo release by the TCEP incubation. F/F^TCEP thus gives the fluorescence intensity, as a fraction of the maximum possible fluorescence signal, at the indicated times.

[4] = Challenge with monothiol reductant GSH, cell-free fluorogenic cargo release; format: physicochemical; details: 10 μM probe; for sensitivity to GSH in GSH titration, signal F/F^TCEP: 3 h timepoint, GSH up to 10 mM; for cargo release when challenged with GSH / GSH system reductants: relevant cellular levels
Description: as §3, §4, §5

[5] = test system: HeLa cervical cancer cell line; assay: Cellular reduction assay in HeLa cells (fluorescence timecourse); format: cell-based, human; details: time- and dose-dependence
Description: (§6) Assay Conditions: Cells were cultured under standard conditions (Gao, L. et al. Cell Chemical Biology 2021, 28, 1-14. https://doi.org/10.1016/j.chembiol.2020.11.007), left to adhere for 24 h, then compounds were added to 100 μM with 1% vol DMSO. Fluorescence timecourse measurements were acquired as in the chemoreductant assay, with all conditions in triplicates.
(§7) Data Representation: F.I.(t) is the fluorescence intensity signal increase as compared to time zero signal (fluorescence intensity immediately following compound addition, before probe activation could occur), in arbitrary units although with the same detection settings for all probes releasing the same cargo. This corresponds to reduction-triggered cargo release.

[6] = molecular target: T2, human recombinant thioredoxin 1 (Trx1) (Homo sapiens, UniProt P10599); assay: Trx1 titration in Trx1/TrxR1 system, cell-free; format: biochemical; details: 10 μM probe
T2 sequence (P10599 2-105 limits assumed): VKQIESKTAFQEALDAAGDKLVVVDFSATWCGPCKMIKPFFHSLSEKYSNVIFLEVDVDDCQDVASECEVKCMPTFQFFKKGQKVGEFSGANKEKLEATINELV
Description: as §1, §2

[7] = molecular target: T3, human recombinant thioredoxin reductase 1 (TrxR1) (Homo sapiens, UniProt Q16881); assay: Enzymatic activation assay with TrxR1, cell-free; format: biochemical; details: 10 μM probe; for cargo release on exposure to TrxR1 (timecourse): 20 nM TrxR1, 100 μM NADPH, 37 °C; for response in TrxR titration: TrxR down to 5 nM
T3 sequence (Q16881 1-499 isoform Q16881-5): T1 sequence (Q16881 with tags, fused parts or gaps isoform Q16881-5) with C498U
Description: as §1, §2

[8] = test system: A549 lung cancer cell line; assay: Cellular reduction assay in A549 cells; format: cell-based, human; details: time- and dose-dependence
Description: as §6, §7

[9] = test system: selenium-dependent reductases in cells; assay: Cellular reduction assay with selenium starvation or supplementation; format: cell-based
Description: as §6, §7

[10] = molecular target: T4, TrxR (Homo sapiens, UniProt Q16881); assay: Cellular reduction assay in HeLa cells with chemical TrxR inhibition (TRi compounds); format: cell-based
T4 construct: P6 is processed by native (selenium-incorporating) TrxR1 in cells; endogenous in cells; host or cells: HeLa
T4 sequence (Q16881 1-499 isoform Q16881-5): T1 sequence (Q16881 with tags, fused parts or gaps isoform Q16881-5) with C498U
Description: as §6, §7

[11] = molecular target: T5, TrxR1 (Mus musculus, UniProt Q9JMH6); assay: Cellular reduction assay in MEF cells with TrxR1 knockout; format: cell-based; details: MEF wildtype vs TrxR1 knockout
T5 construct: P6 is processed by native (selenium-incorporating) TrxR1 in cells; endogenous in cells; host or cells: MEF wildtype and MEF with TrxR1 knockout
T5 sequence (Q9JMH6 1-499 isoform Q9JMH6-2): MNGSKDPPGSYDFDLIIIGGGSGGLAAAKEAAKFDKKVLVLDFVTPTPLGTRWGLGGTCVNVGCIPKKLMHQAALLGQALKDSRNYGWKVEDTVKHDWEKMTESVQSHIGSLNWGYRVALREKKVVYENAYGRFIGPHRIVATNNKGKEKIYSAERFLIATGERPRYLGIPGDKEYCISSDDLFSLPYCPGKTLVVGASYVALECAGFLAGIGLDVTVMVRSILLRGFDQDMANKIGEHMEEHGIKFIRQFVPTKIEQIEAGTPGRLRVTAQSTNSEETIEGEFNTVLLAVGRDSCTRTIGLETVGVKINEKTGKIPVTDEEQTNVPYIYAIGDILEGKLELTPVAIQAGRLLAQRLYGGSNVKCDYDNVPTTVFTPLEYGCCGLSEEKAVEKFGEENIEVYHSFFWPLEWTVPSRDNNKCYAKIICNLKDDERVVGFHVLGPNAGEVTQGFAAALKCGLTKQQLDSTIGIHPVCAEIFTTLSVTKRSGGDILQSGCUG
Description: as §6, §7

[12] = test system: HeLa cells; assay: In vitro cell viability assay (resazurin); format: cell-based, human; details: 48 h incubation, read-out: EC50 (antiproliferation / cell viability)
Description: Assay Conditions: HeLa cells were cultured under standard conditions (Gao, L. et al. Cell Chemical Biology 2021, 28, 1-14. https://doi.org/10.1016/j.chembiol.2020.11.007), left to adhere for 24 h, then compounds were added from DMSO stock solution and adjusted to 1% vol DMSO. Cells were further incubated for 48 h, then 0.20 volume equivalents of a solution of resazurin in PBS (0.15 mg/mL) were added and incubated for 3 hours, then fluorescence (ex 544 nm, em 590 nm) was detected on a fluorescence platereader. Cell viability (%) is calculated from the fluorescence values, relative to a control experiment with no compound added.

Compound | cargo release by TrxR1 U498C mutant [2] | triggering by GR/GSH/Grx systems [3] | sensitivity to GSH in GSH titration, signal F/F^TCEP [4] | cargo release when challenged with GSH / GSH system reductants [4] | fluorescence signal generation F.I.(t) in HeLa cells [5] | cargo release with increasing Trx1 at fixed TrxR1 [6] | cargo release on exposure to TrxR1 (timecourse) [7] | response in TrxR titration [7] | effect of selenium starvation/supplementation on cellular signal generation [9] | other results
COc1cccc2ccc3c(c12)Oc1cc(NC(=O)OCC[Se][Se]CCO)ccc1C31OC(=O)c2ccccc21 (centres unmarked) [E2] |  |  |  |  |  |  |  |  |  | fluorescence signal with GSH [1]: strong signal turn-on
CN1CCN(C(=O)CCN(C(=O)Oc2ccc(Cl)cc2-c2nc3ccc(Cl)cc3c(=O)[nH]2)[C@H]2CC[Se]SC2)CC1 [P7] | do not respond to the mutant; also recorded: did not cause cargo release | resist triggering; also recorded: total resistance to Grx challenge | very low sensitivity | high resistance to GSH challenge | strong time- and dose-dependent fluorescent signal increase; also recorded: generated strong fluorescent signal | identical release of cargo; also recorded: did not affect the outcomes | release their cargo rapidly; also recorded: release cargo very rapidly | excellently responsive; also recorded: sensitively |  | 
CN1CCN(C(=O)CCN(C(=O)Oc2ccc(Cl)cc2-c2nc3ccc(Cl)cc3c(=O)[nH]2)[C@H]2CCS[Se]C2)CC1 [P6] | do not respond to the mutant; also recorded: did not cause cargo release | resist triggering | completely insensitive | totally resisted releasing cargo | strong time- and dose-dependent fluorescent signal increase; also recorded: generated strong fluorescent signal | identical release of cargo; also recorded: did not affect the outcomes | release their cargo rapidly; also recorded: release cargo very rapidly | excellently responsive; also recorded: sensitively | strongly suppressed by selenium starvation | fluorescence signal generation in A549 cells [8]: time- and dose-dependent fluorescence increase; also recorded: dose- and time-dependently generated signal; effect of chemical TrxR inhibition on cellular signal [10]: suppresses P6 signal generation; also recorded: almost entirely suppressed; effect of TrxR1 knockout on cellular signal [11]: almost entirely suppressed by knockout
CN(C(=O)Oc1cc2c(c3ccccc13)[C@H](CCl)CN2C(=O)c1cc2cc(OCCCN3CCC3)ccc2[nH]1)[C@H]1CCS[Se]C1 [P8] |  |  |  |  |  |  |  |  |  | EC50 [12]: < 100 nM; EC50 ([12]; Homo sapiens, 48 h): ~60 nM
CNCCSSCCN(C)C(=O)Oc1ccc(Cl)cc1-c1nc2ccc(Cl)cc2c(=O)[nH]1 [X26, 4-chloro-2-(6-chloro-4-oxo-3,4-dihydroquinazolin-2-yl)phenyl methyl(2-((2-(methylamino)ethyl)disulfaneyl)ethyl)carbamate, reference compound] |  |  |  |  | also generated signal |  |  |  | not sensitive to selenium supplementation | response to GSH-triggered release of fluorescent cargo PQ-OH (timecourse) ([4]; subphysiological GSH 1 mM, TE buffer pH 7.4, 37 °C): rapidly and strongly affected; also recorded: rapid response
